Like-named read-outs stand apart in the source and are kept apart here.
Biological target: T1, human RXFP1 (Homo sapiens, UniProt Q9HBX9)
T1 sequence (Q9HBX9 1-757): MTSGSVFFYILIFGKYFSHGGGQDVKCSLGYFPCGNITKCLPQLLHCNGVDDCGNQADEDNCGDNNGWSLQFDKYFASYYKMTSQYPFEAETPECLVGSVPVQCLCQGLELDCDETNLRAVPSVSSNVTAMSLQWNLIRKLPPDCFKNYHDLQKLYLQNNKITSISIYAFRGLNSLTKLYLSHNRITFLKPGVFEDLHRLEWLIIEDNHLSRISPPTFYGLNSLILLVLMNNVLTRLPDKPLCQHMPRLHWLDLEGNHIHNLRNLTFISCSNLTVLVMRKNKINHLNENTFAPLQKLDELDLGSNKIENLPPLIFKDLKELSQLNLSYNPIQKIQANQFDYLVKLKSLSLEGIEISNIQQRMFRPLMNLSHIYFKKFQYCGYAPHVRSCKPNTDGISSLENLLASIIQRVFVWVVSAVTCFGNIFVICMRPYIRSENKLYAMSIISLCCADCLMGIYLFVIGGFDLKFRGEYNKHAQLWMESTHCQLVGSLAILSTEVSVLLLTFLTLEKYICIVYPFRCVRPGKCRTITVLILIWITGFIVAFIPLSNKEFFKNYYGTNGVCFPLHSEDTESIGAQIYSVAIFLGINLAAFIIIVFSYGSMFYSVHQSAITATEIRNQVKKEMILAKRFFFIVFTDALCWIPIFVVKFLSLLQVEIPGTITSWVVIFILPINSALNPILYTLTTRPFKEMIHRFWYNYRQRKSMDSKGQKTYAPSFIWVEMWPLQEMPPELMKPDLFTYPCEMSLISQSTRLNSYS
Experiment: RXFP1 Hu cAMP (Test A)
Assay type: cell-based
Set-up: expressed in transfected cells; host or cells: Jump-In T-REx CHO-K1 cells (ThermoFisher), induced with 10 ng/ml doxycycline for 24 h
Description: To screen for modulators of hRXFP1, an assay identifying compounds that stimulate cAMP production via the Gs-coupled hRXFP1 receptor was used. cAMP HiRange HTRF kit (available from CisBio Bioassays, France; catalogue number 62AM6PEJ) was employed in large according to manufacturer's recommendations for detection of cAMP. The HTRF method is a competitive immunoassay between native cAMP produced by cells and cAMP labeled with the dye d2. The tracer binding is visualized with a cryptate labeled antibody for cAMP and the signal is thus inversely proportional to the amount of produced cAMP.
Cells: Jump-In™ T-REx™ CHO-K1 Cells (ThermoFisher) stably transfected with human RXFP1 was employed. Cells were induced to express human RXFP1 by treatment with 10 ng/ml doxycycline for 24 h. Cells were then cryopreserved for long term storage.
HTRF detection reagents: cAMP-d2 and anti-cAMP cryptate reconstituted according to CisBio instructions were diluted 1:40 in lysis buffer provided with the HTRF-kit.
3. 4 μL assay buffer with 1 mM IBMX (0.5 mM final concentration) to block phosphodiesterases was added with Multidrop Combi (ThermoFisher).
6. 4 μL cAMP-d2 in lysis buffer was added with Multidrop Combi.
7. 4 μL anti-cAMP cryptate in lysis buffer was added with Multidrop Combi
8. 2 h incubation at room temperature
Using a cAMP standard curve, HTRF data was converted to amount cAMP produced in the samples which was subsequentially used for calculation of concentration responses. Concentration response data were fitted with a four parameter logistic fit, the Hill equation. The results from the assay are reported in Table 36 as EC50 (μM) and Sinf (%).
Where the assay was run multiple times for the same compound, the geometric mean is reported.
Sinf is the fitted activity level, efficacy, at infinite concentration of test compound. To facilitate comparison of efficacy data, efficacy was normalized to % effect of the response stimulated by a saturating concentration of relaxin (1 nM). Where the assay was run multiple times for the same compound, the arithmetic mean is reported.

[1] = RXFP1 Hu cAMP, read-out: Test A EC50

Compound | Test A Sinf (RXFP1 Hu cAMP) [%] | EC50 (Test A EC50, RXFP1 Hu cAMP) [nM] | EC50 [1] [nM]
COc1cc(F)c(O[C@H]2CC[C@@](C)(c3noc(=O)[nH]3)CC2)cc1C(=O)N[C@@H]1[C@H]2CC[C@H](C2)[C@@H]1C(=O)NCC1(C)CCC1 [Example 418, (1R,2S,3R,4S)-3-(4-fluoro-2-methoxy-5-(((1s,4S)-4-methyl-4-(5-oxo-4,5-dihydro-1,2,4-oxadiazol-3-yl)cyclohexyl)oxy)benzamido)-N-((1-methylcyclobutyl)methyl)bicyclo[2.2.1]heptane-2-carboxamide] | 100 | 64 | –
COC[C@]1(C(=O)O)CC[C@@H](Oc2cc(C(=O)N[C@@H]3[C@@H]4CC[C@@H](C4)[C@@H]3C(=O)Nc3cccc(S(=O)(=O)C(F)(F)F)c3)c(OC)cc2F)CC1 [Example 479] | 104 | – | 7.8
COc1cc(C#N)c(OCCCC(C)(C)C(=O)O)cc1C(=O)N[C@@H]1[C@H]2CC[C@H](C2)[C@@H]1C(=O)NCC1(C)CCC1 [Example 431] | 115 | – | 130
CCC(C)(C)NC(=O)c1ccc(Cl)cc1NC(=O)c1cc(O[C@H]2CC[C@@](C)(C(=O)O)CC2)c(C#N)cc1OC [Example 163] | 151 | – | 67
COc1cc(F)c(O[C@H]2CC[C@@H](NS(C)(=O)=O)CC2)cc1C(=O)N[C@@H]1[C@H]2CC[C@H](C2)[C@@H]1C(=O)Nc1cccc(S(=O)(=O)C(F)(F)F)c1 [Example 459, (1R,2S,3R,4S)-3-(4-Fluoro-2-methoxy-5-(((1s,4S)-4-(methylsulfonamido)cyclohexyl)oxy)benzamido)-N-(3-((trifluoromethyl)sulfonyl)phenyl)bicyclo[2.2.1]heptane-2-carboxamide] | 91 | – | 320
COc1cc(F)c(O[C@H]2C[C@@H](CC(=O)O)C2)cc1C(=O)N[C@@H]1[C@@H]2CC[C@@H](C2)[C@@H]1C(=O)Nc1cccc(S(=O)(=O)C(F)(F)F)c1 [Example 475, 2-((1S,3s)-3-(2-Fluoro-4-methoxy-5-(((1R,2R,3S,4S)-3-((3-((trifluoromethyl)sulfonyl)phenyl)carbamoyl)bicyclo[2.2.1]heptan-2-yl)carbamoyl)phenoxy)cyclobutyl)acetic acid] | 100 | – | 200
COc1cc(F)c(O[C@H]2CC[C@@](C)(C(=O)O)CC2)cc1C(=O)N[C@@H]1COCC[C@@H]1C(=O)Nc1ccc(F)c(S(F)(F)(F)(F)F)c1 (racemic) [Example 349] | 113 | – | 1800
COc1cc(F)c(O[C@H]2CC[C@@](CO)(C(=O)O)CC2)cc1C(=O)NC1C2CCC(C2)C1C(=O)Nc1cccc(S(=O)(=O)C(F)(F)F)c1 (single isomer, unassigned) [Example 584, (1R,4s)-4-(2-Fluoro-4-methoxy-5-(((1S*,2S*,3R*,4R*)-3-((3-((trifluoromethyl)sulfonyl)phenyl)carbamoyl)bicyclo[2.2.1]heptan-2-yl)carbamoyl)phenoxy)-1-(hydroxymethyl)cyclohexane-1-carboxylic acid] | 106 | – | 0.7
COc1cc(F)c(OCc2ccccc2C(=O)O)cc1C(=O)N[C@H]1[C@@H](C(=O)Nc2cccc(S(=O)(=O)C(F)(F)F)c2)[C@@H]2C=C[C@H]1C2 (racemic) [Example 448, rac-2-((2-Fluoro-4-methoxy-5-(((1R,2R,3S,4S)-3-((3-((trifluoromethyl)sulfonyl)phenyl)carbamoyl)bicyclo[2.2.1]hept-5-en-2-yl)carbamoyl)phenoxy)methyl)benzoic acid] | 77 | – | 2600
COc1cc(F)c(O[C@H]2CC[C@@H](C(=O)O)CC2)cc1C(=O)N[C@H]1[C@@H](C(=O)Nc2cccc(S(=O)(=O)C(F)(F)F)c2)[C@@H]2C=C[C@H]1C2 (racemic) [Example 495] | 98 | – | 120
COc1cc(F)c(O[C@H]2CC[C@](C)(C(=O)O)CC2)cc1C(=O)NC1[C@H]2CC[C@H](C2)[C@@H]1C(=O)Nc1cccc(S(=O)(=O)C(F)(F)F)c1 (stereo partly drawn) [Example 445] | 101 | – | –
COc1cc(F)c(OC[C@H]2C[C@@H](C(=O)O)C2)cc1C(=O)N[C@@H]1[C@@H]2CC[C@@H](C2)[C@@H]1C(=O)Nc1cccc(S(=O)(=O)C(F)(F)F)c1 [Example 473, (1S,3s)-3-((2-Fluoro-4-methoxy-5-(((1R,2R,3S,4S)-3-((3-((trifluoromethyl)sulfonyl)phenyl)carbamoyl)bicyclo[2.2.1]heptan-2-yl)carbamoyl)phenoxy)methyl)cyclobutane-1-carboxylic acid] | 104 | – | 140
COc1cc(F)c(O[C@H]2CC[C@@](F)(C(=O)O)CC2)cc1C(=O)N[C@@H]1[C@H]2CC[C@H](C2)[C@@H]1C(=O)NCC1(C)CCC1 [Example 415] | 103 | – | –
COc1cc(C#N)c(O[C@H]2CC[C@@](C)(C(=O)O)CC2)cc1C(=O)N[C@H]1[C@@H](C(=O)NCC2(C)CCC2)[C@H]2CC[C@@H]1N2C(=O)OC(C)(C)C (racemic) [Example 334] | 96 | 4.3 | –
COc1cc(C#N)c(O[C@H]2CC[C@@](C)(C(=O)O)CC2)cc1C(=O)Nc1cc(C)ccc1C(=O)NC12CC(C1)C2 [Example 173] | 126 | – | 190
COc1cc(F)c(OC2CCCC(C(=O)O)C2)cc1C(=O)N[C@@H]1[C@H]2CC[C@H](C2)[C@@H]1C(=O)Nc1cccc(S(=O)(=O)C(F)(F)F)c1 (single isomer, unassigned) [Example 447] | 94 | – | 830
COc1cc(C#N)c(O[C@H]2CC[C@@](C)(C(=O)O)CC2)cc1C(=O)N[C@@H]1[C@H]2CC[C@H](C2)[C@@H]1C(=O)NC1CCCCC1 [Example 121] | 98 | – | 130
COc1cc(F)c(OCCCC(=O)O)cc1C(=O)N[C@H]1[C@@H](C(=O)Nc2cccc(S(=O)(=O)C(F)(F)F)c2)[C@@H]2C=C[C@H]1C2 (racemic) [Example 456] | 129 | – | –
COc1cc(F)c(-c2ccc(C(=O)O)cc2)cc1C(=O)N[C@@H]1CCC[C@@H]1C(=O)Nc1cccc(S(=O)(=O)C(F)(F)F)c1 (racemic) [Example 299] | 81 | – | –
COc1cc(F)c(-c2nc(C(=O)O)cs2)cc1C(=O)N[C@H]1[C@@H](C(=O)Nc2cccc(S(=O)(=O)C(F)(F)F)c2)[C@@H]2C=C[C@H]1C2 (racemic) [Example 286] | 29 | – | –
COc1cc(F)c(OC2CC(CC(=O)O)C2)cc1C(=O)NC1C2CCC(C2)C1C(=O)Nc1cccc(S(=O)(=O)C(F)(F)F)c1 [Example 474, 2-((1R,3r)-3-(2-Fluoro-4-methoxy-5-(((1R,2R,3S,4S)-3-((3-((trifluoromethyl)sulfonyl)phenyl)carbamoyl)bicyclo[2.2.1]heptan-2-yl)carbamoyl)phenoxy)cyclobutyl)acetic acid] | 118 | – | 650
COc1cc(F)c(O[C@H]2CC[C@@](C)(C(=O)O)CC2)cc1C(=O)N[C@@H]1[C@H]2CC[C@H](C2)[C@@H]1C(=O)NC1CCCC1(C)C (relative stereo) [Example 503, (1S,4s)-4-(5-(((1S,2R,3S,4R)-3-(((R*)-2,2-Dimethylcyclopentyl)carbamoyl)bicyclo[2.2.1]heptan-2-yl)carbamoyl)-2-fluoro-4-methoxyphenoxy)-1-methylcyclohexane-1-carboxylic acid] | 102 | – | 60
